# Measurements as given in ChEMBL document CHEMBL3639324, “Meta-substituted phenyl sulfonyl amides of secondary amino acid amides, the production thereof, and use thereof as matriptase inhibitors” (2013).
# Target: T1, Suppressor of tumorigenicity 14 protein (Homo sapiens, UniProt Q9Y5Y6)
# T1 sequence (Q9Y5Y6 whole entry): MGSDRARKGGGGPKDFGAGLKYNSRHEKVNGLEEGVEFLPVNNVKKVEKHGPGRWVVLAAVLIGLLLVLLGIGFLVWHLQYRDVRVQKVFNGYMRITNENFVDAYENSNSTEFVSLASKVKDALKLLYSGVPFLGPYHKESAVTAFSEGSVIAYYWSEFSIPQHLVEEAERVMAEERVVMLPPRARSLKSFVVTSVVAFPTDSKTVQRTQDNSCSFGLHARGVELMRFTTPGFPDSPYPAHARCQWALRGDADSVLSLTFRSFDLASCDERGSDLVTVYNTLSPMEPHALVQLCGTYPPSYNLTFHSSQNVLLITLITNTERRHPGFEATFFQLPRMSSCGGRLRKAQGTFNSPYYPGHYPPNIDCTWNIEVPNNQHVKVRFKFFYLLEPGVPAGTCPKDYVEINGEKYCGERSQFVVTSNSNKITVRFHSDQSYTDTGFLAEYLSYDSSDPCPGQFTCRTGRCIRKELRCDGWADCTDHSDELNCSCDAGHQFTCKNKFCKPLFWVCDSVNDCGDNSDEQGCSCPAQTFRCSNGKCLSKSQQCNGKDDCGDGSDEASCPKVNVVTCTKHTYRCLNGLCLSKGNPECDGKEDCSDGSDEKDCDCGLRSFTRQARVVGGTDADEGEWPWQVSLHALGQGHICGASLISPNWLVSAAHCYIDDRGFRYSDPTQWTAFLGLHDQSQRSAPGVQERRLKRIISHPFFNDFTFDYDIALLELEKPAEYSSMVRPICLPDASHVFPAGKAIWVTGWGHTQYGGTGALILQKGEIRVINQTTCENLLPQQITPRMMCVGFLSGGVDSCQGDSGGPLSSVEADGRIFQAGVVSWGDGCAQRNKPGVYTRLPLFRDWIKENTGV
# Assay: Inhibition Assay: Inhibition assay using matriptase enzyme
smiles,measurement,value
CNC(=O)CCCC1CCN(C(=O)[C@H](Cc2cccc(C(=N)N)c2)NS(=O)(=O)c2cccc(N3CCNCC3=O)c2)CC1,Ki,24 nM
